Test results from US20220289746A1, “PYRROLIDINE DERIVATIVES” (Hoffmann-La Roche Inc., priority 2019, published 2022).

Tests used:
M4 receptor = biological target: T1, M4 receptor (Mus musculus, UniProt P32211); conditions: rodent in vivo; effects absent in M4 knockout mice; cited from earlier work
T1 construct: host or cells: living mice (behavioural test)
T1 sequence (P32211 1-479): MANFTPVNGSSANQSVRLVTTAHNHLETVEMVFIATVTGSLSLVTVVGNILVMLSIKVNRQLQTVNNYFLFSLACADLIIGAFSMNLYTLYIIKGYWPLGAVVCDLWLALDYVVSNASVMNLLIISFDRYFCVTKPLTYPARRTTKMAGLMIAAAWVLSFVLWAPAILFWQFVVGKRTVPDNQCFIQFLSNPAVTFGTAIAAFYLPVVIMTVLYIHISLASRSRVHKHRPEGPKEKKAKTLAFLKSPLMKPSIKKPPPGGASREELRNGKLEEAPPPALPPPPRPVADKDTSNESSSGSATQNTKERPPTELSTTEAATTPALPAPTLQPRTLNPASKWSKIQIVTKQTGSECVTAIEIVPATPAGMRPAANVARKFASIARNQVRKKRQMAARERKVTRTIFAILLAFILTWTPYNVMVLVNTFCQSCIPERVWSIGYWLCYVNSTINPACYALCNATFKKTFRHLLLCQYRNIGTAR

muscarinic receptors = conditions: 345 Alzheimer patients; cited from earlier work
human M4 receptor [1] = biological target: T2, human M4 receptor (Homo sapiens, UniProt P08173); assay: Calcium flux assay using fluorescent imaging (M4 PAM FLIPR assay); format: cell-based; design: expressed in transfected cells; host or cells: CHO (monoclonal line, clone 2); conditions: CHO cells expressing human M4+Gqi5, acetylcholine EC20
T2 sequence (P08173 1-479): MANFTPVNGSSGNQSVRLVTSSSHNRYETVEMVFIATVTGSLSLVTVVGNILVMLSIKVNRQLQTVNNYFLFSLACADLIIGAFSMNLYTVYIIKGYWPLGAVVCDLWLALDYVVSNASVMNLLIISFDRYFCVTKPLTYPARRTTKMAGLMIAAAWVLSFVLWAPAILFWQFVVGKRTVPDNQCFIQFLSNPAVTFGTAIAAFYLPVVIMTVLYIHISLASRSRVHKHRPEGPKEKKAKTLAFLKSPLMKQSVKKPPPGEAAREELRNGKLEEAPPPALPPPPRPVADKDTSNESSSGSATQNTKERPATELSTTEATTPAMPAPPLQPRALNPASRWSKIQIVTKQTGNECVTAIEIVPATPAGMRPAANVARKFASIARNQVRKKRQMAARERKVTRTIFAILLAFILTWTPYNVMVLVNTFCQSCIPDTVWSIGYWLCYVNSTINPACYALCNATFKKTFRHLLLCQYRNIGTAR
Outline: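 CHO cells stably expressing human M4 with Gqi5 were loaded with 2 μM Fluo-4-AM for about 90 min at 37 °C, in HBSS/20 mM HEPES pH 7.3/2.5 mM probenecid. For PAM mode, compound was pre-incubated 15 min before an EC20 acetylcholine challenge; calcium read on FDSS 7000. EC50 and efficacy are relative to 3 μM acetylcholine (EC100), four-parameter fit.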

liver cells = assay: Determination of the in vitro clearance in liver cells; format: in vitro ADME; conditions: for clearance values reduced compared to clearance values of examples P1, P2 and P55: in vitro clearance, relative to reference compounds; for Clearance: in vitro intrinsic clearance, liver cells (hepatocyte cultures), 37° C.
Method: Determination of the In Vitro Clearance
Incubations of a test compound at different concentrations were performed in 96 well plates containing liver cells (5% CO2 atmosphere and 37° C.). At defined time points, either cell medium was taken or the whole well was quenched with acetonitrile containing an internal standard. Samples are then cooled and centrifuged before analysis by LC-MS/MS. Different enzyme markers (Cyp3A4 substrates Midazolam, Quinidin, CYP2B6 Buproprion, CYP2D6 Dextromethorphan, CYP2C9 Tolbutamide, FMO substrate Benzydamine, UGT substrate Raloxifene) for assessing the metabolic activity of the hepatocyte cultures were used as quality control.
Log peak area ratios (test compound peak area/internal standard peak area) or concentrations were plotted against incubation time and a linear fit made to the data with emphasis upon the initial rate of compound disappearance. The slope of the fit is then used to calculate the intrinsic clearance:
Additionally, the intrinsic clearance can also be deduced by the measured rates of metabolite formation.

human M4 receptor [2] = biological target: T2, human M4 receptor; assay: cAMP assay for M4 positive allosteric modulators (M4 PAM cAMP assay); format: cell-based; design: expressed in transfected cells; host or cells: CHO-K1; conditions: CHO-K1 cells expressing human M4, forskolin 7.5 μM + acetylcholine EC20 (0.2 nM)
Outline: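 CHO-K1 cells stably expressing untagged human M4 pre-treated 15 min at 37 °C with compound plus IBMX, then stimulated 30 min with 7.5 μM forskolin and EC20 acetylcholine (0.2 nM). cAMP read by TR-FRET; normalised to 2 nM acetylcholine plus forskolin as 100%, sigmoidal fit giving EC50 and % efficacy.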

| EC50 (human M4 receptor [1]; Table 1) [nM] | clearance values reduced compared to clearance values of examples P1, P2 and P55 (liver cells) [%] | Clearance (liver cells) [μl/min/1 * 10^6 cells] | EC50 (human M4 receptor [2]; Table 1) [nM] | EC50 (human M4 receptor [1]; Table 2) [nM] | SMILES | also measured |
| --- | --- | --- | --- | --- | --- | --- |
| 61 | 50 | 3.5 | 79 | – | Cc1nc2c(c(C)c1Cl)CN(C(=O)[C@@H]1CCN(c3ccncn3)C1)C2 [Example 2, (3-chloro-2,4-dimethyl-5,7-dihydropyrrolo[3,4-b]pyridin-6-yl)-[(3R)-1-pyrimidin-4-ylpyrrolidin-3-yl]methanone] | – |
| 387 | 50 | 9.3 | 155 | – | Cc1nc2c(c(C)c1Cl)CN(C(=O)[C@@H]1CCN(c3cccnc3)C1)C2 [Example 1, (3-chloro-2,4-dimethyl-5,7-dihydropyrrolo[3,4-b]pyridin-6-yl)-[(3R)-1-(3-pyridyl)pyrrolidin-3-yl]methanone] | – |
| 181 | – | – | 80 | – | Cc1nc2c(c(C)c1Cl)CN(C(=O)[C@@H]1CCN(c3ccnc(C(F)F)c3)C1)C2 [Example 20, (3-chloro-2,4-dimethyl-5,7-dihydropyrrolo[3,4-b]pyridin-6-yl)-[(3R)-1-[2-(difluoromethyl)-4-pyridyl]pyrrolidin-3-yl]methanone] | – |
| 235 | – | – | 164 | – | Cc1nc2c(c(C)c1Cl)CN(C(=O)[C@@H]1CCN(c3ccnc(C#N)n3)C1)C2 [Example 24, 4-[(3R)-3-(3-chloro-2,4-dimethyl-5,7-dihydropyrrolo[3,4-b]pyridine-6-carbonyl)pyrrolidin-1-yl]pyrimidine-2-carbonitrile] | – |

The remaining lines, values behind:

| SMILES | EC50 (human M4 receptor [1]; Table 1) [nM] | clearance values reduced compared to clearance values of examples P1, P2 and P55 (liver cells) [%] | Clearance (liver cells) [μl/min/1 * 10^6 cells] | EC50 (human M4 receptor [2]; Table 1) [nM] | EC50 (human M4 receptor [1]; Table 2) [nM] | also measured |
| --- | --- | --- | --- | --- | --- | --- |
| Cc1nnc2sc(C(=O)NCc3ccc(S(=O)(=O)C(F)(F)F)cc3)c(N)c2c1C [VU0467154] | – | – | – | – | – | effect on associative learning impairments induced by MK-801 (M4 receptor): ameliorated the associative learning impairments |
| CCCCCCOc1nsnc1C1=CCCN(C)C1 [Xanomeline] | – | – | – | – | – | effect on cognition and psychiatric symptoms (muscarinic receptors): improve cognition and psychiatric symptoms |
| COCc1nc2c(c(C)c1Cl)CN(C(=O)CC1CN(c3ccncn3)C1)C2 [Example P55, 1-[3-chloro-2-(methoxymethyl)-4-methyl-5,7-dihydropyrrolo[3,4-b]pyridin-6-yl]-2-(1-pyrimidin-4-ylazetidin-3-yl)ethanone, reference compound] | – | – | 5.1 | – | 50 | – |
| Cc1nc2c(c(C)c1Cl)CN(C(=O)CC1CN(c3ccncn3)C1)C2 [Example P2, reference compound] | – | – | 7.9 | – | 35 | EC50 (human M4 receptor [2]; Table 2): 53 nM |
| COCc1nc2c(c(C)c1Cl)CN(C(=O)[C@@H]1CCN(c3ccncn3)C1)C2 [Example 55, [3-chloro-2-(methoxymethyl)-4-methyl-5,7-dihydropyrrolo[3,4-b]pyridin-6-yl]-[(3R)-1-pyrimidin-4-ylpyrrolidin-3-yl]methanone] | 42 | 50 | 2.1 | 192 | – | – |
| Cc1nc2c(c(C)c1Cl)CN(C(=O)CC1CN(c3cccnc3)C1)C2 [Example P1, reference compound] | – | – | 20 | – | 947 | EC50 (human M4 receptor [2]; Table 2): 55 nM |
